Reference: patent US20230310478A1, “METHODS AND COMPOSITIONS FOR THE TREATMENT OF PULMONARY HYPERTENSION AND CANCER” (Ann and Robert H. Lurie Children's Hospital of Chicago, priority 2020, published 2023)
“Also recorded” adds a separate entry of the source. Counter-ions that a name gives are not always drawn.

Legend:
[1] = tested on: Endothelin-1; experiment: quantitative RT-PCR of PH-causing genes in DMOG-treated HLMVECs: Endothelin-1; type: cell-based, human; settings: 24 h, mean±SD
Description: (§1) Regarding Table 2, human lung microvascular endothelial cells (ECs) were treated with 2-Dimethyloxalylglycine (DMOG, PHD inhibitor) and either vehicle (DMSO) or various HIF inhibitors for 24 h. RNA was isolated for quantitative RT-PCR analysis.

[2] = biological target: T1, HIF-2α (Homo sapiens, UniProt Q99814); experiment: HRE-luciferase activity in stable HRE/luciferase-expressing 786-O cells; type: cell-based; settings: for HRE luciferase activity (HIF activity), result in words: stable HRE-luciferase 786-O cells
T1 construct: endogenous in cells; host or cells: 786-O cells stably expressing HRE-luciferase
T1 sequence (Q99814 whole entry): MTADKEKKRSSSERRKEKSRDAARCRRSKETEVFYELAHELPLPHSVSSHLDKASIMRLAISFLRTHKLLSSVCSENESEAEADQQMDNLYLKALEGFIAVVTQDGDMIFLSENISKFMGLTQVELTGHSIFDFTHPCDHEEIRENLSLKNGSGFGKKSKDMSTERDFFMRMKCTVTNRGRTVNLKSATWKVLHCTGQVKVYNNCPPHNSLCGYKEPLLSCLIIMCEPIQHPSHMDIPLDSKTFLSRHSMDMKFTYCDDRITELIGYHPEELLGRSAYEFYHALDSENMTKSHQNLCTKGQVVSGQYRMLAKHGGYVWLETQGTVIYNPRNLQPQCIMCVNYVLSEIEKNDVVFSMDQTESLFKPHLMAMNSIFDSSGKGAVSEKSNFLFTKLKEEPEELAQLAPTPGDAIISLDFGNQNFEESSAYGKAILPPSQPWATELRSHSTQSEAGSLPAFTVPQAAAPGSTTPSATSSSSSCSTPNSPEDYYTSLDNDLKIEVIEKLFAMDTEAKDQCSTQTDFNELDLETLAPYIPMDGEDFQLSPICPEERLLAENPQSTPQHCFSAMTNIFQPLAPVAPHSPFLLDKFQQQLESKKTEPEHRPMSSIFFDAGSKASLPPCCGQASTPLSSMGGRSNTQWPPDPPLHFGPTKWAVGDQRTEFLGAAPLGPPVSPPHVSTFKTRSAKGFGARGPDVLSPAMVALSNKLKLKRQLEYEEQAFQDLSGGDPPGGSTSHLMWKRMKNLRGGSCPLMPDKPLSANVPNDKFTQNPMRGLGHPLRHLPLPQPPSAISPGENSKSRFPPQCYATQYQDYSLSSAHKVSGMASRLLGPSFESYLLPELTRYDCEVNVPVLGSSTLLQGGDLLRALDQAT
Description: HRE, hypoxia-responsive element.
FIG. 5. […] PBS was used in CTL and compound C76 was used as a positive control. **, P<0.01, ****, P<0.0001. Student t test.
FIG. 7. Ethacridine is a potent HIF-α inhibitor. To validate the inhibitory effect of Ethacridine, stable 786-O cells expressing HRE-Luciferase was treated with Ethacridine at the indicated concentration for 24 h. Luciferase activity was then measured and normalized to control vehicle (DMSO) group. Ethacridine at 5 uM could inhibited approximately 80% HRE activity, i.e., HIF activity. Data are expressed as mean±SD. […]

[3] = tested on: MCT-challenged rats; experiment: monocrotaline (MCT) rat model of pulmonary hypertension; type: in vivo
Description: (A) Representative micrographs of Russel-Movat pentachrome staining of MCT-rat lungs. […] (B) Quantification of PA wall thickness in MCT rat lungs. […] Lung sections were immunostained with anti-α-smooth muscle actin (α-SMA) antibody (red); nuclei were counterstained with DAPI (blue). […] Scale bars: 50 μm.
FIG. 6. […] At 14 days post-MCT challenge, the rats were treated with HEAQ (20 mg/kg, oral, daily) or PBS for another 14 days.
RVSP was measured (A) and RV hypertrophy was calculated (B) at 28 days post-treatment. […] One-way ANOVA.
At 14 days post-MCT challenge, the rats were treated with Propantheline (1.0 mg/kg, i.p., twice a day) and Ethacridine (7.5 mg/kg, i.p., twice a day) (P+E) at the same time for 14 days. A separate group of rats was treated with either Propantheline (2.5 mg/kg, i.p., twice a day). RVSP was measured (A) and RV hypertrophy was calculated (B) at 28 days post-treatment. […] One-way ANOVA.

[4] = tested on: SDF1; experiment: quantitative RT-PCR of PH-causing genes in DMOG-treated HLMVECs: SDF1; settings: 24 h, mean±SD
Description: as §1

[5] = tested on: PDGF-B; experiment: quantitative RT-PCR of PH-causing genes in DMOG-treated HLMVECs: PDGF-B; type: cell-based, human; settings: 24 h, mean±SD
Description: as §1

[6] = tested on: 786-O cells; experiment: control SV40-luciferase activity in 786-O cells (toxicity); type: cell-based, human; settings: for SV40-Luc (of control): 2.5 uM; for control SV40 luciferase activity (cell toxicity), result in words: quinidine at the doses tested
[7] = tested on: HIF-2α; experiment: Western blotting of HIF-2α protein level; type: cell-based
[8] = biological target: human ether-à-go-go-related gene (hERG) channel (Homo sapiens, UniProt Q12809); settings: from reference 21; read-out: hERG channel inhibition IC50; cited from earlier work
Chain of human ether-à-go-go-related gene (hERG) channel (Q12809 whole entry): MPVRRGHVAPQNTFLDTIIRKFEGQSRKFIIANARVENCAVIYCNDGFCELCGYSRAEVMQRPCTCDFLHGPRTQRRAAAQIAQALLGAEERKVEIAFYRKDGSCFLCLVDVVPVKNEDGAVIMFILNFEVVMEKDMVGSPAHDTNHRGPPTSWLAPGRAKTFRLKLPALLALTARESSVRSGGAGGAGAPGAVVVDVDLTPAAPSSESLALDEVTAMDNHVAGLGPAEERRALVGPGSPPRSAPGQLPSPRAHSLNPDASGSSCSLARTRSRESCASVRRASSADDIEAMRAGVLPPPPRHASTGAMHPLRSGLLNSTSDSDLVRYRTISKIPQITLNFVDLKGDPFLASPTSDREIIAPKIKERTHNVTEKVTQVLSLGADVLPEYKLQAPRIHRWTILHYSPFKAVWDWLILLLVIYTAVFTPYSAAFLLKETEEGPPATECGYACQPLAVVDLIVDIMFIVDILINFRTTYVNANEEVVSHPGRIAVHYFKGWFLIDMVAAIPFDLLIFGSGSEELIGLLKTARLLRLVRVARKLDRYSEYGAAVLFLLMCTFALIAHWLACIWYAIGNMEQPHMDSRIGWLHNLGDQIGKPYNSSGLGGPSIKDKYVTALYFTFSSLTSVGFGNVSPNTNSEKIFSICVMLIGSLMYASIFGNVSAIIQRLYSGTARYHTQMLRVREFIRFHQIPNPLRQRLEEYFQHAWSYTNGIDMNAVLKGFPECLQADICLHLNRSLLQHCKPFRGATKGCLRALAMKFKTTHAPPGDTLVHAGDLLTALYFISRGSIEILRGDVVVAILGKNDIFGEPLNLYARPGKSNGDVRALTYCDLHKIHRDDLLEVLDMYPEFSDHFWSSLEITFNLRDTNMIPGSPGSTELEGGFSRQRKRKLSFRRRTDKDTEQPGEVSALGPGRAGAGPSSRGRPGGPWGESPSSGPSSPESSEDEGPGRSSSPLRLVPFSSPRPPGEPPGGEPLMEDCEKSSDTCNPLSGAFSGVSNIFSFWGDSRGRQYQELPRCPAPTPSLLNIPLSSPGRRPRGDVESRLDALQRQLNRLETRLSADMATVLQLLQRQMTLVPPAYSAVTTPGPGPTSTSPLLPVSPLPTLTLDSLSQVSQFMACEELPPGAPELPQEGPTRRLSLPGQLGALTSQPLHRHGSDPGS

[9] = MCT rat lungs, quinidine s.c. osmotic pump 10-12 mg/kg/day, 14 days
[10] = MCT rats, quinidine s.c. osmotic pump 10-12 mg/kg/day, 14 days
[11] = MCT rats, quinidine s.c. osmotic pump 10-12 mg/kg/day, 14 days from 2 weeks post-MCT

CCOc1ccc2nc3cc(N)ccc3c(N)c2c1 [Ethacridine, 7-ethoxyacridine-3,9-diamine]
Endothelin-1 expression (control = 1.00) ([1]; 20 & 30 uM, DMOG alone 2.36 ± 0.23): 0.12 ± 0.07 | Endothelin-1 expression (control = 1.00) ([1]; 20 & 30 uM, DMOG alone 2.36 ± 0.23, listed as ethacridine): markedly inhibited | inhibition at 2.5 µM ([2]; 786-0, 786-O cells, 2.5 uM): 70% | inhibition at 5 µM ([2]; 786-0, 786-O cells, 5 uM, 24 h, read-out: inhibition of HRE activity, i.e., HIF activity): ~80% | HRE luciferase activity (HIF activity), result in words ([2]; 24 h): potent HIF α inhibitors | PH (RVSP) ([3]; MCT rats, ethacridine alone 7.5 mg/kg i.p. twice a day, 14 days): didn't inhibit PH | SDF1 expression (control = 1.00) ([4]; 20 & 30 uM, DMOG alone 1.80 ± 0.06): 12.9 ± 8.1 | SDF1 expression (control = 1.00) ([4]; 20 & 30 uM, DMOG alone 1.80 ± 0.06, listed as ethacridine): induced SDF-1 expression | PDGF-B expression (control = 1.00) ([5]; 20 & 30 uM, DMOG alone 2.05 ± 0.33): 0.52 ± 0.31 | PDGF-B expression (control = 1.00) ([5]; 20 & 30 uM, DMOG alone 2.05 ± 0.33, listed as ethacridine): markedly inhibited

COc1cc([C@@H]2c3cc4c(cc3[C@@H](O[C@@H]3O[C@@H]5CO[C@@H](C)O[C@H]5[C@H](O)[C@H]3O)[C@H]3COC(=O)[C@H]23)OCO4)cc(OC)c1O [Etoposide, (5S,5aR,8aR,9R)-5-[[(2R,4aR,6R,7R,8R,8aS)-7,8-dihydroxy-2-methyl-4,4a,6,7,8,8a-hexahydropyrano[3,2-d][1,3]dioxin-6-yl]oxy]-9-(4-hydroxy-3,5-dimethoxyphenyl)-5a,6,8a,9-tetrahydro-5H-[2]benzofuro[6,5-f][1,3]benzodioxol-8-one]
Endothelin-1 expression (control = 1.00) ([1]; 20 & 40 uM, DMOG alone 2.36 ± 0.23): 0.47 ± 0.50 | Endothelin-1 expression (control = 1.00) ([1]; 20 & 40 uM, DMOG alone 2.36 ± 0.23, listed as etoposide): markedly inhibited | HRE-Luc (of control) ([2]; 786-O cells, 1.25 uM): 0.34 | HRE luciferase activity (HIF activity), result in words ([2]; 24 h): potent HIF α inhibitors | SDF1 expression (control = 1.00) ([4]; 20 & 40 uM, DMOG alone 1.80 ± 0.06): 1.25 ± 0.80 | PDGF-B expression (control = 1.00) ([5]; 20 & 40 uM, DMOG alone 2.05 ± 0.33): 0.77 ± 0.37 | PDGF-B expression (control = 1.00) ([5]; 20 & 40 uM, DMOG alone 2.05 ± 0.33, listed as etoposide): markedly inhibited

CCc1c2c(nc3ccc(OC(=O)N4CCC(N5CCCCC5)CC4)cc13)-c1cc3c(c(=O)n1C2)COC(=O)[C@]3(O)CC [Irinotecan, [(19S)-10,19-diethyl-19-hydroxy-14,18-dioxo-17-oxa-3,13-diazapentacyclo[11.8.0.0^2,11.0^4,9.0^15,20]henicosa-1(21),2,4(9),5,7,10,15(20)-heptaen-7-yl] 4-piperidin-1-ylpiperidine-1-carboxylate; hydrochloride]
inhibition at 2.5 µM ([2]; 786-0, 786-O cells, 2.5 uM): 65 to 77% | HRE-Luc (of control) ([2]; 786-O cells, 2.5 uM): 0.23 | HRE luciferase activity (HIF activity), result in words ([2]; 24 h): potent HIF α inhibitors | SV40-Luc (of control) ([6]; hydrochloride): 0.99 | SV40-Luc (of control) ([6]; listed as irinotecan, hydrochloride): without clear toxicity

CC[N+](C)(CC)CCOC(=O)C1c2ccccc2Oc2ccccc21 [Methantheline]
inhibition at 2.5 µM ([2]; 786-0, 786-O cells, 2.5 uM): 65 to 77% | HRE-Luc (of control) ([2]; 786-O cells, 2.5 uM): 0.31 | HRE luciferase activity (HIF activity), result in words ([2]; 24 h): potent HIF α inhibitors | SV40-Luc (of control) [6]: 0.86 | SV40-Luc (of control) ([6]; listed as methantheline): without clear toxicity

CC(C)[N+](C)(CCOC(=O)C1c2ccccc2Oc2ccccc21)C(C)C.[Br-] [Propantheline]
Endothelin-1 expression (control = 1.00) ([1]; 40 uM, DMOG alone 2.36 ± 0.23): 1.70 ± 0.45 | SDF1 expression (control = 1.00) ([4]; 40 uM, DMOG alone 1.80 ± 0.06): 0.53 ± 0.37 | SDF1 expression (control = 1.00) ([4]; 40 uM, DMOG alone 1.80 ± 0.06, listed as propantheline): mainly inhibited SDF-1 expression | PDGF-B expression (control = 1.00) ([5]; 40 uM, DMOG alone 2.05 ± 0.33): 1.55 ± 0.44

C=C[C@H]1C[N@]2CC[C@H]1C[C@@H]2[C@@H](O)c1ccnc2ccc(OC)cc12 [Quinidine, (2-Ethenyl-4-azabicyclo[2.2.2]oct-5-yl)-(6-methoxyquinolin-4-yl)-methanol]
HIF-2α protein level [7]: didn't inhibit expression | inhibition at 20 µM ([2]; 786-0, 786-O cells, 20 uM): ~70% | HRE luciferase activity (HIF activity), result in words ([2]; 24 h): repressed HRE luciferase (Luc) activity in a dose-dependent manner | HRE luciferase activity (HIF activity), result in words ([2]; 24 h, listed as quinidine): inhibition of HRE/luciferase activity in a dose-dependent manner | expression of HIF-2α downstream target genes in lungs ([3]; MCT rat lungs, quantitative RT-PCR, quinidine vs vehicle): normalized or markedly inhibited; also recorded: suppressed HIF-2α activation in MCT-rat lungs | muscularization of distal pulmonary arteries (<75 μm) [3, 9]: markedly attenuated; also recorded: Marked decrease in muscularization of distal pulmonary arterioles | pulmonary artery wall thickening (pulmonary vascular remodeling) [3, 9]: markedly attenuated; also recorded: reversed pulmonary vascular remodeling | survival, result in words ([3]; MCT rats, Log-rank test): promoted survival | PH (RVSP) ([3]; MCT rats, quinidine alone 10 mg/kg oral twice a day, 14 days): didn't inhibit PH | RV contractility [3, 10]: Improved RV contractility | RV wall thickness (echocardiography) [3, 10]: decreased RV wall thickness; also recorded: reduction in RV wall thickness | RV hypertrophy [3, 11]: marked decrease; also recorded: reduced | right ventricular systolic pressure (RVSP) [3, 11]: marked decrease; also recorded: reduced RVSP | survival rate ([3]; day 28 post-MCT challenge with a lethal dose, all vehicle rats had died): 90% | control SV40 luciferase activity (cell toxicity), result in words [6]: didn't repress control SV40 luciferase activity | control SV40 luciferase activity (cell toxicity), result in words ([6]; listed as quinidine): without obvious toxicity

hydroxyethylapoquinine [HEAQ]
HRE luciferase activity (HIF activity), result in words ([2]; 24 h): could inhibit HIF activity as efficiently as Quinidine | IC50 [8]: > 90 µM | PH (RVSP) ([3]; MCT rats, HEAQ 20 mg/kg oral daily for 14 days from 14 days post-MCT): attenuate PH; also recorded: markedly reduced RVSP
